{
  "source": "patent EP0469084B1",
  "about": "“HEPATOSPECIFIC INSULIN ANALOGUES” (MOUNT SINAI SCHOOL OF MEDICINE OF THE CITY UNIVERSITY OF …, priority 1989, dated 1995)",
  "key": {"[1]": {"settings": "from U.S. Patent 4,992,417 and PCT/US88/02289; cited from earlier work"}, "[2]": {"tested_on": "FAO cells", "assay": "Inhibition of gluconeogenesis assay (glucose secretion by confluent hepatoma cell monolayers)", "assay_type": "cell-based", "settings": "for potency in inhibiting gluconeogenesis relative to the natural hormone: ratio of concentration of insulin to analogue producing half-maximal inhibition of glucose production, FAO hepatoma cells", "excerpt": "(§1) Although insulin analogues, in general, maintain some residual insulin activity, the potency of such analogues is usually only a fraction of that of natural insulins. The potency of human, bovine and porcine insulins in USP standards is about 25-26 IU (international units) per mg protein. Standard assay for measuring insulin potency include inter alia (1) insulin radioreceptorassays, in which the relative potency of an insulin is defined as the ratio of insulin to insulin analogue required to displace 50% of ¹²⁵I-insulin specifically bound to insulin receptors present on cell membranes, e.g. a rat liver plasma membrane fraction, isolated rat adipocytes, or isolated rat hepatocytes; (2) lipogenesis assays, performed e.g. with rat adipocytes, in which relative insulin potency is defined as the ratio of insulin to insulin analogue required to achieve 50% of the maximum conversion of [3-³H] glucose into organic-extractable material (i.e. lipids); (3) glucose oxidation assays in isolated fat cells in which the relative potency of the insulin analogue is defined as the ratio of insulin to insulin analogue to achieve 50% of the maximum conversion of glucose-1-[¹⁴C] into [¹⁴CO₂]; (4) insulin radioimmunoassays which can determine the immunogenicity of insulin analogues by measuring the effectiveness by which insulin or an insulin analogue competes with ¹²⁵I-insulin in binding to specific anti-insulin antibodies; (5) inhibition of gluconeogenesis performed on confluent monolayers of a well differentiated hepatoma cell line (FAO) in which inhibition of glucose secretion into the medium is determined as a function of the concentration of insulin or insulin analogue.\nThis assay was carried out on confluent monolayers of a well differentiated hepatoma cell line (Lauris et al. Endocrinology 118:2519-2524 (1986)) in which glucose production was monitored with a commercial glucose oxidase kit (Sigma kit no. 510-A, Sigma Technical Bulletin 510, 1983). Inhibition of glucose secretion into the medium was determined as a function of the concentration of insulin or insulin analogue, and the relative potency of the analogue was defined as the ratio of the concentration of insulin to analogue required to produce half-maximal inhibition of glucose production. The cell culture and glucose production was carried out as described by Lauris et al., supra.\nThe potency of the synthetic insulin in inhibiting gluconeogenesis is calculated to be about 90% relative to the natural hormone."}, "[3]": {"tested_on": "rat adipocytes", "assay": "Lipogenesis assay (conversion of [3-3H] glucose into lipids in isolated adipocytes)", "assay_type": "cell-based", "settings": "for potency in lipogenesis compared to the natural hormone: concentration ratio of bovine insulin to analogue producing 50% of maximum stimulation of lipogenesis", "excerpt": "as §1\nIn this Example the materials used and the analytical procedures followed are those found in Kitagawa et al., Biochemistry, 23: 1405-1413 (1984). ¹²⁵I-insulin for receptor binding studies and [3-³H] glucose for lipogenesis were obtained from DuPont NEN Research Products. Cellulose acetate membrane filters, 0.2 »m pore size, were products of Sartorius. Glass-fiber filters, Type GFC, were from Whatman. Collagenase, Type II crude, was obtained from Worthington. […]\nThese assays measured the ability of the insulin analogue as compared to bovine insulin to convert [3-³H] glucose into lipids.\nAdipocytes were prepared by incubating epididymal and perirenal fat pads obtained from male rats weighing 200-300 g with 1.0 mg/ml collagenase for 60 min at 37°C, followed by filtration through gauze and then through fine-mesh silk. […] Samples were extracted with 10 ml of Soluscint-0® for 30 min at room temperature before counting the radioactivity in a scintillation counter. […] Zero and 100% stimulation of lipogenesis were defined as radioactivity observed in the absence and presence, respectively, of 9.1 x 10⁻¹⁰M insulin (5.5 ng/ml). […]"}, "[4]": {"tested_on": "insulin receptors", "assay": "Insulin receptor binding assay (inhibition of specific 125I-insulin binding, rat liver plasma membrane fraction)", "settings": "concentration ratio of unlabelled insulin to analogue required to inhibit 50% of specific 125I-insulin binding; rat liver plasma membranes, 45 min at 24°C, pH 7.4", "method": "Although insulin analogues, in general, maintain some residual insulin activity, the potency of such analogues is usually only a fraction of that of natural insulins. The potency of human, bovine and porcine insulins in USP standards is about 25-26 IU (international units) per mg protein. […]\nBriefly, triplicate 0.2ml incubations contained ¹²⁵I-insulin, 3 x 10⁻¹⁰M, unlabelled insulin or [Trp¹⁴-A] insulin prepared as in Example 1, and plasma membranes (20-40 »g of protein) in 0.1 M sodium phosphate, pH 7.4, containing 0.6% fraction V bovine serum albumin. […] The filters were washed twice with the ice cold buffer, dried, and then radioactivity was counted in a scintillation counter using Filtron-X®. […]"}, "[5]": {"settings": "from W. Danho et al., Chemical Abstracts 94: 47733x; cited from earlier work"}, "[6]": {"settings": "compared with insulin, FAO cells"}},
  "data": [
    {"substance": "[10-Aspartic Acid-B] human insulin", "values": [
      {"measurement": "potency relative to natural insulins", "setting": "[1]", "result": "4 to 5", "unit": "times"}
    ]},
    {"substance": "[Trp¹⁴-A] insulin", "values": [
      {"measurement": "concentration of agonist producing half-maximal inhibition of gluconeogenesis", "setting": "[2]; [6]", "result": "approximately the same concentration of agonist"},
      {"measurement": "maximum inhibition of gluconeogenesis", "setting": "[2]; [6]", "result": "same maximum inhibition of gluconeogenesis"},
      {"measurement": "potency in inhibiting gluconeogenesis relative to the natural hormone", "setting": "[2]", "result": 90, "unit": "%"},
      {"measurement": "potency in inhibiting gluconeogenesis relative to the natural hormone", "setting": "[2]; listed as [Trp ¹⁴-A] insulin", "result": "about 90%"},
      {"measurement": "concentration of agonist producing half-maximal stimulation of lipogenesis", "setting": "[3]; compared with bovine insulin", "result": "about twice the concentration of agonist"},
      {"measurement": "maximum stimulation of lipogenesis", "setting": "[3]; compared with bovine insulin", "result": "same maximum stimulation of lipogenesis"},
      {"measurement": "potency in lipogenesis compared to the natural hormone", "setting": "[3]", "result": "about 60%"},
      {"measurement": "potency in lipogenesis compared to the natural hormone", "setting": "[3]; listed as synthetic insulin", "result": "approximately 60%"},
      {"measurement": "potency of that of the natural hormone (relative potency, receptor binding)", "setting": "[4]", "result": "about 60%"}
    ]},
    {"substance": "porcine A14-phenylalanine insulin", "values": [
      {"measurement": "biological activity compared with native insulin", "setting": "[5]", "result": "virtually the same biological activity as native insulin"}
    ]}
  ]
}
